In US12629370B2, “Treatment of prostate cancer” (Sumitomo Pharma Co., Ltd., priority 2016, dated 2026):
“Also recorded” adds a separate entry of the source.

Experiments:
[1] = system: patients with advanced prostate cancer; assay: Example 8: treatment-emergent adverse events (safety population)
Experimental: The core tablets were coated with a film coating comprising hypromellose 2910 (21.36 mg), titanium dioxide (2.4 mg), and red ferric oxide (0.06 mg).
For patients receiving leuprolide acetate (leuprorelin), on-treatment study visits occurred at baseline (day 1, week 1), day 1 of weeks 2, 3, and 5, and then every 4 weeks until week 25, and then at 12 week intervals (week 37 and 49). Patients on leuprorelin received their final injection at week 37, day 1, and the week 49, day 1 visit was considered the end of leuprorelin exposure. Patients receiving leuprorelin at visits at 16 (EOT), 20 (follow-up visit), and 24 (EOS) weeks after the last leuprorelin injection.
Efficacy and safety analyses were conducted using a safety population (received ≥1 dose of study drug). […] Safety was assessed by recording the incidence, severity, and types of treatment-emergent adverse events; by physical examination (including slit lamp examination of the anterior eye); and by evaluating changes from baseline in weight, vital signs, 12-lead electrocardiogram (ECG), and clinical laboratory parameters. […] Adverse events were coded using the Medical Dictionary for Regulatory Activities version 19.0 and graded according to National Cancer Institute Common Terminology Criteria version 4.03 (Tables 7 and 8). Safety-related haematology, chemistry, and urinalysis measurements were taken at each study visit and analysed at a central laboratory (LabCorp). Phospholipidosis was assessed as part of the safety assessments.

FSH = assay: Example 8: FSH levels; type: in vivo, human; conditions: for FSH Mean (Std Dev) / FSH Median: Leuprorelin Q12W;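 on all read-outs here: FSH determined at every study visit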
[2] = system: patients with advanced prostate cancer; assay: Example 8: quality of life, Aging Male Survey (AMS); type: in vivo, human; conditions: Leuprorelin Q12W
Experimental: Quality of life (QoL) was assessed throughout the study and the follow-up period. The 25-item Prostate Cancer Module of the European Organization for Research and Treatment of Cancer Quality of Life Questionnaire (EORTC QLQ-PR25), Aging Male Survey (AMS), and core 30-item EORTC Quality of Life Questionnaire (EORTC QLQ-C30) were completed at screening, day 1 of weeks 5, 13, 25, 37, and 49, and, if applicable, at the follow-up visits.

serum testosterone = assay: Example 8: serum testosterone in men with advanced prostate cancer, versus leuprolide acetate; type: in vivo, human; conditions: for Testosterone Mean (Std Dev) / Testosterone Median / Median testosterone: Leuprorelin Q12W
Description: Eligible men were aged ≥18 years with a histologically confirmed diagnosis of prostate adenocarcinoma, and were candidates for ADT for the management of hormone-sensitive prostate cancer with one of the following clinical disease states: advanced localized disease not suitable for primary surgical or radiation therapy; evidence of PSA biochemical or clinical relapse following primary surgery or radiation therapy of curative intent; or newly diagnosed metastatic disease that was asymptomatic and without visceral involvement. […] Patients with advanced, localized MON1 or M1 disease with clinically significant symptoms or visceral involvement, who required immediate GnRH therapy, chemotherapy, or radiation therapy were not eligible for the trial.
Serum testosterone levels were measured at each visit.

PSA = assay: Example 8: PSA response; type: in vivo, human
Description: Eligible men were aged ≥18 years with a histologically confirmed diagnosis of prostate adenocarcinoma, and were candidates for ADT for the management of hormone-sensitive prostate cancer with one of the following clinical disease states: advanced localized disease not suitable for primary surgical or radiation therapy; evidence of PSA biochemical or clinical relapse following primary surgery or radiation therapy of curative intent; or newly diagnosed metastatic disease that was asymptomatic and without visceral involvement. Additional inclusion criteria at screening included: eugonadal serum testosterone >150 ng/dl (5.2 nmol/L); serum PSA concentration >2 ng/ml (or, when applicable, >0.2 ng/ml following radical prostatectomy or >2 ng/mL above the post-radiotherapy nadir following radiotherapy); body mass index ≥18.0 at screening and/or baseline (i.e., the subject's BMI prior to treatment commencing); and Eastern Cooperative Oncology Group (ECOG) performance status of 0 or 1. Patients with advanced, localized MON1 or M1 disease with clinically significant symptoms or visceral involvement, who required immediate GnRH therapy, chemotherapy, or radiation therapy were not eligible for the trial.
PSA levels were measured at each visit.

How did the “Cerebral haemorrhage, Grade ≥3” value ([1]; Leuprorelin Q12W) turn out when `CCNC(=O)[C@@H]1CCCN1C(=O)[C@H](CCCNC(=N)N)NC(=O)[C@H](CC(C)C)NC(=O)[C@@H](CC(C)C)NC(=O)[C@H](Cc1ccc(O)cc1)NC(=O)[C@H](CO)NC(=O)[C@H](Cc1c[nH]c2ccccc12)NC(=O)[C@H](Cc1c[nH]cn1)NC(=O)[C@@H]1CCC(=O)N1` [Leuprorelin, leuprolide acetate] was run?
The value was 0 n (%).

And the “Cerebrovascular accident, Grade ≥3” value ([1]; Leuprorelin Q12W)?
The value was 0 n (%).

What about the “Death (Table 7)” value ([1]; Leuprorelin Q12W) of the same compound?
Its value is 1 (4) n (%).

And the “Death, Grade ≥3 (Table 8)” value ([1]; Leuprorelin Q12W)?
Its value is 0 n (%).

And the “Musculoskeletal pain, Grade ≥3” value ([1]; Leuprorelin Q12W)?
Its value is 0 n (%).

What about the “Sudden death, Grade ≥3” value ([1]; Leuprorelin Q12W) of the same compound?
Its value is 0 n (%).

And the “Acute coronary syndrome, Grade ≥3” value ([1]; in vivo)?
Its value is 0 n (%).

What about the “Adverse event resulting in study drug discontinuation” value ([1]; in vivo) of the same compound?
Its value is 0 n (%).

And the “Alanine aminotransferase increased, Grade ≥3” value ([1]; in vivo)?
Its value is 0 n (%).

What about the Any adverse event ([1]; in vivo) of the same compound?
Its Any adverse event is 23 (96) n (%).

What about the “Arthralgia, Grade ≥3 (Table 8)” value ([1]; in vivo) of the same compound?
Its value is 0 n (%).

And the “Aspartate aminotransferase increased, Grade ≥3” value ([1]; in vivo)?
Its value is 0 n (%).

What about the “Atrial flutter, Grade ≥3” value ([1]; in vivo) of the same compound?
The value was 0 n (%).

What about the “Bladder cancer, Grade ≥3” value ([1]; in vivo) of the same compound?
Its value is 0 n (%).

What about the “Cervical vertebral fracture, Grade ≥3” value ([1]; in vivo) of the same compound?
Its value is 0 n (%).

And the “Diabetes mellitus, Grade ≥3” value ([1]; in vivo)?
Its value is 1 (4) n (%).

And the Drug-related adverse event ([1]; in vivo)?
Its Drug-related adverse event is 18 (75) n (%).

What about the “Fatigue, Grade ≥3 (Table 8)” value ([1]; in vivo) of the same compound?
The value was 0 n (%).

And the “Gamma-glutamyltransferase increased, Grade ≥3” value ([1]; in vivo)?
Its value is 0 n (%).

And the “Grade ≥3 adverse event (Table 7)” value ([1]; in vivo)?
Its value is 2 (8) n (%).

What about the “Hypercalcaemia, Grade ≥3” value ([1]; in vivo) of the same compound?
The value was 0 n (%).

What about the “Hypertension, Grade ≥3” value ([1]; in vivo) of the same compound?
The value was 0 n (%).

And the “Hypotension, Grade ≥3” value ([1]; in vivo)?
The value was 0 n (%).

And the “Inguinal hernia, Grade ≥3” value ([1]; in vivo)?
Its value is 0 n (%).

What about the “Joint dislocation, Grade ≥3” value ([1]; in vivo) of the same compound?
Its value is 0 n (%).

And the “Metastases to bone, Grade ≥3” value ([1]; in vivo)?
The value was 0 n (%).

What about the “Myocardial infarction, Grade ≥3” value ([1]; in vivo) of the same compound?
Its value is 1 (4) n (%).

And the “Non-cardiac chest pain, Grade ≥3” value ([1]; in vivo)?
The value was 0 n (%).

What about the “Osteoarthritis, Grade ≥3” value ([1]; in vivo) of the same compound?
The value was 0 n (%).

And the “Patients with at least 1 Grade ≥3 adverse events (Table 8)” value ([1]; in vivo)?
Its value is 2 (8) n (%).

What about the “Procedural pain, Grade ≥3” value ([1]; in vivo) of the same compound?
Its value is 0 n (%).

And the “Sepsis, Grade ≥3” value ([1]; in vivo)?
The value was 0 n (%).

And the Serious adverse event ([1]; in vivo)?
The Serious adverse event was 2 (8) n (%).

What about the “Syncope, Grade ≥3” value ([1]; in vivo) of the same compound?
The value was 0 n (%).

What about the “Transient ischaemic attack, Grade ≥3” value ([1]; in vivo) of the same compound?
Its value is 0 n (%).

What about the “Urinary tract infection, Grade ≥3” value ([1]; in vivo) of the same compound?
Its value is 0 n (%).

What about the “hot flush (most common adverse event), patients” value ([1]; in vivo) of the same compound?
Its value is 15 (63%) n (%).

What about the “FSH Mean (Std Dev)” value (FSH; Baseline) of the same compound?
The value was 19.688 (19.1894) IU/L.

What about the “FSH Median” value (FSH; Baseline) of the same compound?
Its value is 14.500 IU/L.

What about the “FSH Mean (Std Dev)” value (FSH; Week 2, Day 1) of the same compound?
Its value is 7.650 (5.4542) IU/L.

And the “FSH Median” value (FSH; Week 2, Day 1)?
Its value is 5.150 IU/L.

And the “FSH Mean (Std Dev)” value (FSH; Week 5, Day 1)?
The value was 2.946 (1.4428) IU/L.

What about the “FSH Median” value (FSH; Week 5, Day 1) of the same compound?
The value was 2.550 IU/L.

And the “FSH Mean (Std Dev)” value (FSH; Week 13, Day 1)?
The value was 4.625 (2.5594) IU/L.

And the “FSH Median” value (FSH; Week 13, Day 1)?
The value was 3.600 IU/L.

And the “FSH Mean (Std Dev)” value (FSH; Week 25, Day 1)?
The value was 5.043 (2.8221) IU/L.

And the “FSH Median” value (FSH; Week 25, Day 1)?
Its value is 4.400 IU/L.

And the “FSH Mean (Std Dev)” value (FSH; Week 49, Day 1)?
The value was 5.145 (2.8201) IU/L.

What about the “FSH Median” value (FSH; Week 49, Day 1) of the same compound?
Its value is 4.250 IU/L.

What about the “median FSH” value (FSH; after 48 weeks of treatment) of the same compound?
Its value is roughly 4.2 mIU/mL.

And the “AMS total score, mean” value ([2]; Baseline)?
Its value is 28.3.

And the “AMS total score after treatment, mean (95% CI) percent change from baseline” value ([2]; EOS)?
The value was 49.9 (21.0-78.7) %.

And the “AMS total score after treatment, mean (95% CI) percent change from baseline” value ([2]; EOT)?
Its value is 61.0 (22.7-99.2) %.

What about the “AMS total score after treatment, mean (95% CI) percent change from baseline” value ([2]; Follow-up) of the same compound?
Its value is 53.8 (18.2-89.4) %.

And the “AMS total score, mean percent change from baseline” value ([2]; W5, D1)?
The value was 10.1%.

And the “AMS total score, mean percent change from baseline” value ([2]; W13, D1)?
The value was 21.9%.

And the “AMS total score, mean percent change from baseline” value ([2]; W25, D1)?
The value was 47.0%.

And the “AMS total score, mean percent change from baseline” value ([2]; W37, D1)?
Its value is 49.4%.

What about the “AMS total score, mean percent change from baseline” value ([2]; W49, D1) of the same compound?
Its value is 60.0%.

And the “Testosterone Mean (Std Dev)” value (serum testosterone; Baseline)?
Its value is 11.363 (5,0204) nmol/L.

And the “Testosterone Median” value (serum testosterone; Baseline)?
The value was 11.120 nmol/L.

And the Median testosterone (serum testosterone; EOS)?
The Median testosterone was 13.5 ng/dL.

And the Median testosterone (serum testosterone; EOT)?
The Median testosterone was 9.8 ng/dL.

What about the “Testosterone Mean (Std Dev)” value (serum testosterone; End of Study) of the same compound?
Its value is 1.695 (3.0345) nmol/L.

What about the “Testosterone Median” value (serum testosterone; End of Study) of the same compound?
Its value is 0.470 nmol/L.

And the “Testosterone Mean (Std Dev)” value (serum testosterone; End of Treatment)?
Its value is 0.641 (0.9616) nmol/L.

And the “Testosterone Median” value (serum testosterone; End of Treatment)?
The value was 0.340 nmol/L.

What about the “Testosterone Mean (Std Dev)” value (serum testosterone; Follow-Up) of the same compound?
Its value is 0.992 (2.2948) nmol/L.

What about the “Testosterone Median” value (serum testosterone; Follow-Up) of the same compound?
The value was 0.340 nmol/L.

What about the Median testosterone (serum testosterone; Follow-up visit) of the same compound?
The Median testosterone was 9.8 ng/dL.

And the “Testosterone Mean (Std Dev)” value (serum testosterone; Week 49, Day 1)?
Its value is 0.478 (0.6313) nmol/L.

What about the “Testosterone Median” value (serum testosterone; Week 49, Day 1) of the same compound?
The value was 0.300 nmol/L.

And the “course of serum testosterone levels” value (serum testosterone; leuprolide acetate 22.5 mg SC)?
The value was “rose during the first 1-2 weeks of therapy then declined to castration levels by Week 5 Day 1; also recorded: rose during the first 1 to 2 weeks of therapy then declined to castrate levels by Week 5 Day 1”.

What about the “Median time from first dose to PSA nadir” value (PSA; Leuprolide Q12W) of the same compound?
Its value is 20.5 Weeks.

And the “patients with ≥50% serum PSA reduction” value (PSA; after 4 weeks of treatment)?
The value was 20%.

And the “patients with ≥90% serum PSA reduction” value (PSA; after 4 weeks of treatment)?
Its value is 0%.
